Test [1] deals with Wild type mice. The test can be described thus: Osteocalcin subcutaneous infusion in wt mice: glycemia. Format: in vivo, mouse. The note with it: 0.3, 1 and 3 ng/hour subcutaneous infusion for 28 days, vs PBS. As for the experimental part: FIG. 10. […] Indicated doses of recombinant osteocalcin or PBS were infused subcutaneously for 28 days in wt mice. Blood glucose was measured at indicated days.
An in vivo experiment was conducted in which the effect of undercarboxylated osteocalcin on glycemia was monitored. Wild type mice were infused with 3 different amounts of mouse recombinant undercarboxylated osteocalcin or placebo (PBS) subcutaneously for 28 days (0.3, 1 and 3 ng/hour).

Test [2] relates to Wild type mice. The test can be described thus: Osteocalcin subcutaneous infusion in wt mice: glucose tolerance after glucose injection. Format: in vivo, mouse. The note with it: 0.3 or 3 ng/hour s.c. for 14 days, then single glucose injection, 120 minute period, vs PBS. As for the experimental part:
FIG. 11. […] Wt mice were infused subcutaneously with indicated doses of recombinant osteocalcin or PBS for 14 days before receiving a single injection of glucose. Blood glucose was measured thereafter at indicated times.
(§1) For glucose tolerance test (GTT), glucose (2 g/kg body weight (BW)) was injected intraperitoneally (IP) after an overnight fast and blood glucose was monitored using blood glucose strips and the Accu-Check glucometer (Roche) at indicated times. For glucose stimulated insulin secretion test (GSIS), glucose (3 g/kg BW) was injected IP after an overnight fast; sera were collected from tails and insulin measured as described (Mauvais-Jarvis et al., 2000). For insulin tolerance test (ITT), mice were fasted for six hours, injected IP with insulin (0.2 U/kg BW) and blood glucose levels were measured at indicated times as described (Mauvais-Jarvis et al., 2002). ITT data are presented as percentage of initial blood glucose concentration. […] Streptozotocin ([…] single injection, Sigma) was injected IP and blood glucose measured as described above every 2 days thereafter. […] Food intake was measured using metabolic cages as the daily change of food weight. Energy expenditure was measured using metabolic cages connected to a calorimeter (Columbus Instrument). Heat values (Kcal/Hr) were recorded over 2 days and reported to each mouse BW. […]

Test [3] has as its system Wild type mice. The test can be described thus: Osteocalcin subcutaneous infusion in wt mice: insulin sensitivity after insulin injection. Format: in vivo, mouse. Conditions: 0.3 or 3 ng/hour s.c. for 18 days, then single insulin injection, 0-120 minutes, vs PBS. As for the experimental part:
FIG. 12. […] Wt mice were infused subcutaneously with indicated doses of recombinant osteocalcin or PBS for 18 days before receiving a single injection of insulin. Blood glucose was measured thereafter at indicated times.
as §1

A short description of test [4]: Osteocalcin subcutaneous infusion in wt mice: body weight and gonadal fat pad mass. Format: in vivo, mouse. On the procedure:
FIG. 13. […] 1) Indicated doses of recombinant osteocalcin or PBS were infused subcutaneously for 28 days in wt mice. Body weight was recorded at indicated days. (2). Gonadal fat pad mass was measured after 28 days.
In another in vivo experiment, the effect of uncarboxylated osteocalcin on body weight and fat pad mass was monitored (FIG. 13). Wild type mice were infused subcutaneously for 28 days with PBS or uncarboxylated osteocalcin at 0.3, 1 or 3 ng/hour. […] (FIG. 13) Gonadal fat pad mass, measured after 28 days, decreased by about % 18 with 3 ng/hour uncarboxylated osteocalcin treatment.

The test system of test [5] is WT islets. Nature of the test: Insulin and Cyclin D1 expression in WT islets cultured with uncarboxylated osteocalcin. Format: cell-based, mouse. The note with it: 0.3 ng/ml (FIG. 7L). From the text:
FIG. 7. Esp−/− Mice Are a Model of Increased Osteocalcin Bioactivity. (A-G) Comparison between 6-week-old WT, Esp−/, Ocn+/−, and Esp−/−; Ocn+/− mice. (A) Blood glucose levels. (B) Serum insulin levels. (C) Serum adiponectin levels. (D) GTT. (E) ITT. (F) GSIS test. (G) Quantification of the number of Ki67-immunoreactive cells in pancreatic islets. […] (J) Expression of Adiponectin in WT adipocytes cocultured with osteoblasts treated with warfarin or vehicle. (K) Expression of Adiponectin in WT adipocytes cultured in presence of vehicle or of 1 ng/ml of commercially available carboxylated osteocalcin (Immunotopics) or bacterially produced uncarboxylated osteocalcin. (L) Expression of Insulin and Cyclin D1 in WT islets cultured in presence of 0.3 ng/ml of bacterially produced uncarboxylated osteocalcin or vehicle. (M) Metabolic parameters and total serum osteocalcin levels in control and obese patients. (N-O) Quantification of carboxylated osteocalcin (HA-bound osteocalcin) in control and obese patients. In (A)-(C) and (G)-(L): *p<0.05 versus WT (Student's t test); in (D)-(F), °p<0.05 versus WT and *p % 0.001 versus WT (ANOVA followed by post hoc analysis).
Islets were isolated using a Histopaque gradient (1077, Sigma). In brief, after clamping the common bile duct at its entrance to the duodenum, 1 mg/ml collagenase P (Sigma) in M199 medium (GIBCO) was injected into the duct. […]

The mark [6] stands for this setting: listed as recombinant osteocalcin.

Ends that are not written are not given here.

As for “uncarboxylated osteocalcin: Recombinant mouse osteocalcin bacterially produced, cleaved from GST with thrombin; completely undercarboxylated at all three sites (YLGASVPSPDPLEPTREQCELNPACDELSDQYGLKTAYKRIYGITI; not fully specified; ends and bridges not checked; UniProt P86546 50-95, looked up)”, the “glycemia (blood glucose)” value in test [1] (setting [6]) was “decreases glycemia”; in test [1] (listed as undercarboxylated osteocalcin), “decreased glycemia”. For the same substance, the glucose tolerance result is recorded as “increased glucose tolerance” in test [2] and “increases glucose tolerance” in test [2] (setting [6]). The results for the insulin sensitivity entry in test [3] and in test [3] (setting [6]) were “increased” and “increases insulin sensitivity”, respectively. The “gonadal fat pad mass decrease” value in test [4] (wild type mice, 3 ng/hour s.c., after 28 days) is roughly 18%. Further, the body weight entry in test [4] (wild type mice, 0.3, 1 or 3 ng/hour s.c. for 28 days, highest dose most effective) is recorded as “slightly reduced”. In addition, the “gonadal fat pad mass” value in test [4] (wild type mice, the other doses (0.3, 1 ng/hour), 28 days) is given as “did not significantly decrease”. For the same substance, the fat mass result in test [4] (wt mice, indicated doses s.c. for 28 days (FIG. 13 legend)) is “decreases fat mass”. Besides, the “expression of Cyclin D1, marker of beta-cell proliferation” value in test [5] is “induced”. Besides, in test [5], the insulin expression result is listed as “induced”.

The values are drawn from patent US9518976B2, “Methods for identifying or assaying for agents that increase beta-cell proliferation, insulin secretion, insulin sensitivity, glucose tolerance and decrease fat mass” (The Trustees of Columbia University in The City of New York, priority 2006, dated 2016).
